The values that follow are results of earlier work, collected in patent US9662346B2, “Method of treating hyperesthesia, paresthesia, dolor, and pruritus caused by insect stings or noxious weeds or plants using avermectin compound” (priority 2007, dated 2017).

For data set [1] the following is noted: oral dosage of a moderate ivermectin concentration.
The test system of a further data set is head lice. The settings on record: single topical application.

Regarding ivermectin, the safety in human result in data set [1] was “safe in human, without serious adverse side effects”. Also, the “effect on head lice” value in the data set with head lice is listed as “curative effect”.
